Entries after “also recorded” stand apart in the source; their conditions may differ. Like-named read-outs stand apart in the source and are kept apart here.

Test [1] relates to EcRs (lepidopteran and non-lepidopteran). Description: Two-hybrid gene switch assays, statements across the set of ten EcRs in NIH3T3 cells.
For test [2], the system named is Nephotettix cincticeps EcR (NcEcR-DEF). Description: Two-hybrid gene switch assay, NcEcR-DEF in NIH3T3 cells. The note with it: for rel max FI (20E), NC: max fold induction at any concentration relative to 20E; for rel max FI (PoA), NC: max fold induction at any concentration relative to PoA; for EC50: read-out: EC50 (μM), NC, NIH3T3 cells, luciferase, 48 h, ligand 0.01-33 μM.

The target in test [3] is T1, wild-type Drosophila melanogaster EcR (DmEcR-DEF) (Drosophila melanogaster, UniProt P34021).
T1 sequence (P34021 342-878 limits assumed): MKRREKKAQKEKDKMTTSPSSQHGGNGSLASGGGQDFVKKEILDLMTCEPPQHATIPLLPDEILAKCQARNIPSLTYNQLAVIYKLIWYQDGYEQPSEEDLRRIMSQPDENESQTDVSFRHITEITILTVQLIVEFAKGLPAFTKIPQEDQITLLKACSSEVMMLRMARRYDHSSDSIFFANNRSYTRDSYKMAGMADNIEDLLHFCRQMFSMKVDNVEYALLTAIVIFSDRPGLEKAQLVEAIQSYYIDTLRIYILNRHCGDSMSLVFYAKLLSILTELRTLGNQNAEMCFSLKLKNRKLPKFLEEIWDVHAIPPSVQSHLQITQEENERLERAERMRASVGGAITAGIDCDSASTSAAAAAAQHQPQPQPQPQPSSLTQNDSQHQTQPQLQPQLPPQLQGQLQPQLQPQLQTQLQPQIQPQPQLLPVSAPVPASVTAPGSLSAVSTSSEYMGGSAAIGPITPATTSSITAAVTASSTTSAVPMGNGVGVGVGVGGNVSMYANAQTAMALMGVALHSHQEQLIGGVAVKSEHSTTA
Description: Two-hybrid gene switch assay, DmEcR-DEF in NIH3T3 cells. The note with it: for rel max FI (20E), DM: max fold induction at any concentration relative to 20E; for rel max FI (PoA), DM: max fold induction at any concentration relative to PoA.

In test [4] the target is T2, Tenebrio molitor EcR (TmEcR-DEF) (Tenebrio molitor, UniProt O02035).
T2 sequence (O02035 194-491): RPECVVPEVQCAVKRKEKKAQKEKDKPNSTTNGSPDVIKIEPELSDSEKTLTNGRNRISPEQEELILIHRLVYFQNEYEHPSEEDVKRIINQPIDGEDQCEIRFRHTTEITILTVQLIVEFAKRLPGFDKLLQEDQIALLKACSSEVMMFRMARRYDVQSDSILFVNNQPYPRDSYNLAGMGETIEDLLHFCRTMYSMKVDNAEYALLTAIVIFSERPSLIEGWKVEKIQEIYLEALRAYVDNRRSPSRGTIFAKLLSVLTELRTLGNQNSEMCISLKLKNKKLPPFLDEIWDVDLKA
T2 sequence (P28704 285-520 partner): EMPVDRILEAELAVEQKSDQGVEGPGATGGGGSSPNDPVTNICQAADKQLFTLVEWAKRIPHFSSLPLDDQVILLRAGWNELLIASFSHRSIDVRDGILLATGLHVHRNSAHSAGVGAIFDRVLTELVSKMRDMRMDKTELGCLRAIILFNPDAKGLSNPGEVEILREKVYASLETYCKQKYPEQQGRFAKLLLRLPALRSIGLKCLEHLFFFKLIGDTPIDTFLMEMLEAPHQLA
Description: Two-hybrid gene switch assay, TmEcR-DEF in NIH3T3 cells. The note with it: for Emax: NIH3T3, 48 h.

Test [5] has as its target Bemisia argentifolii EcR (BaEcR-DEF) (Bemisia argentifolii (Bemisia tabaci biotype B / MEAM1), UniProt A0A6M3RDR8). In words: Two-hybrid gene switch assay, BaEcR-DEF in NIH3T3 cells. The note with it: for Emax: NIH3T3, 48 h.
Test [6] relates to D. melanogaster BII cell line (expresses the ecdysteroid receptor complex EcR-USP). In words: Drosophila melanogaster BII cell line bioassay (turbidometric; agonist and antagonist versions). The note with it: Drosophila BII cell line, Example Two.

Sequence of Bemisia argentifolii EcR (BaEcR-DEF) (P28702 298-449): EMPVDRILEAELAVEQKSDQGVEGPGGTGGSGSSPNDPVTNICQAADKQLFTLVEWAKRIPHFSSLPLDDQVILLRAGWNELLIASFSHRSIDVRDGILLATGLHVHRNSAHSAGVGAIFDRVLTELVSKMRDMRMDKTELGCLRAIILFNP
Sequence of Bemisia argentifolii EcR (BaEcR-DEF) (A0A6M3RDR8 entry or part of it): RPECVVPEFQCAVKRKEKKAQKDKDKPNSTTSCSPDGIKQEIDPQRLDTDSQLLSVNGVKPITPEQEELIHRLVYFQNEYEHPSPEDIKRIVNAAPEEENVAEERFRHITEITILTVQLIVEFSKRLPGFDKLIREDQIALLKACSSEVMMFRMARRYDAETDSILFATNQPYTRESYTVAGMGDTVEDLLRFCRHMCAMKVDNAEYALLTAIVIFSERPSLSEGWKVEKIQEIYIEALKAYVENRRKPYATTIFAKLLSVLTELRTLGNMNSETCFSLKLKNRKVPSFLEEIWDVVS

On to `C[C@@H]1C(=O)O[C@H](C)[C@H]1C[C@@H](O)[C@](C)(O)[C@H]1CC[C@@]2(O)C3=CC(=O)[C@@H]4C[C@@H](O)[C@@H](O)C[C@]4(C)[C@H]3CC[C@]12C` [cyasterone], for which the “selectivity / relative potency between EcRs” value in test [1] is “somewhat selective for lepidopteran EcRs”.
In the case of `CO[C@H]1C[C@@]2(C)[C@@H](C[C@H]1O)C(=O)C=C1[C@@H]2CC[C@]2(C)[C@@H]([C@@](C)(O)[C@@H](CCC(C)(C)O)OC)CC[C@@]12O` [20E-2,22-dimethyl ether], the “rel max FI (20E), NC” value in test [2] was 0.84. Besides, the “rel max FI (PoA), NC” value in test [2] turned out to be 0.86. For the same molecule, the EC50 – broadly, the concentration giving half of the maximal effect – in test [2] is around 10 µM; in test [3] (EC50 (μM), DM, DmEcR, NIH3T3 cells, luciferase, 48 h, ligand 0.01-33 μM), around 20 µM; in test [4], around 10 µM; in test [5], around 10 µM. For the same molecule, the “rel max FI (20E), DM” value in test [3] (DmEcR) is 0.12. The “rel max FI (PoA), DM” value in test [3] (DmEcR) is given as 0.15. The Emax was determined as 24% in test [4] (read-out: rel max FI (20E), TM); 13% in test [4] (read-out: rel max FI (PoA), TM); 24% in test [5] (read-out: rel max FI (20E), BA); 19% in test [5] (read-out: rel max FI (PoA), BA).
Turning to `CC(C)(O)C(CCC(C)(O)C1CCC2(O)C3=CC(=O)C4CC(O)C(O)CC4(C)C3CCC12C)OC(=O)c1ccc[nH]1` (centres unmarked) [canescensterone], the “selectivity / relative potency between EcRs” value in test [1] was “selective for non-lepidopteran EcRs; also recorded: BaEcR>E274V/V390I/Y410E mutant-CfEcR”. The molecule also returned an EC50 in test [6] of 0.00053 µM.
On to `CO[C@@H]1C[C@H]2C(=O)C=C3[C@H](CC[C@]4(C)[C@@H]([C@@](C)(O)[C@H](O)CCC(C)(C)O)CC[C@@]34O)[C@@]2(C)C[C@@H]1O` [20E-3-methyl ether], for which the “rel max FI (20E), NC” value in test [2] worked out at 1.01. Further, in test [2], the “rel max FI (PoA), NC” value worked out at 1.04. Further, the EC50 in test [2] is 1.69 µM; in test [3], above 33 µM; in test [4], around 10 µM; in test [5] it was around 15 µM. Moreover, in test [3] (DmEcR), the “rel max FI (20E), DM” value is listed as 0.02. Besides, in test [3] (DmEcR), the “rel max FI (PoA), DM” value was 0.03. Besides, the Emax is 114% in test [4] (read-out: rel max FI (20E), TM); 59% in test [4] (read-out: rel max FI (PoA), TM); 29% in test [5] (read-out: rel max FI (20E), BA); 23% in test [5] (read-out: rel max FI (PoA), BA).
Turning to `CO[C@H](CCC(C)(C)O)[C@](C)(O)C1CC[C@@]2(O)C3=CC(=O)C4C[C@@H](O)[C@@H](O)CC4(C)C3CCC12C` (some centres unmarked) [20E-22-methyl ether], in test [2], the “rel max FI (20E), NC” value came out at 1.02. In addition, the “rel max FI (PoA), NC” value in test [2] amounted to 1.05. Also, the EC50 in test [2] was 2.59 µM; in test [3], around 4 µM; in test [4], 7.08 µM; in test [5], around 3 µM. Moreover, the “rel max FI (20E), DM” value in test [3] (DmEcR) is given as 0.87. Further, the “rel max FI (PoA), DM” value in test [3] (DmEcR) is 1.07. Further, the Emax in test [4] (read-out: rel max FI (20E), TM) stood at 158%; in test [4] (read-out: rel max FI (PoA), TM) it was 81%; in test [5] (read-out: rel max FI (20E), BA), 154%; in test [5] (read-out: rel max FI (PoA), BA) it was 123%.
Consider `CC(C)CC[C@@H](O)[C@](C)(O)[C@H]1CC[C@@]2(O)C3=CC(=O)[C@@H]4C[C@@H](O)[C@@H](O)C[C@]4(C)[C@H]3[C@H](O)C[C@]12C` [ajugasterone C], for which the “selectivity / relative potency between EcRs” value in test [1] was “higher in non-lepidopteran species”.
For `CO[C@@H]1C[C@H]2C(=O)C=C3[C@H](CC[C@]4(C)[C@@H]([C@@](C)(O)[C@@H](CCC(C)(C)O)OC)CC[C@@]34O)[C@@]2(C)C[C@@H]1O` [20E-3,22-dimethyl ether], the “rel max FI (20E), NC” value in test [2] is 1.03. In test [2], the “rel max FI (PoA), NC” value turned out to be 1.06. Further, the EC50 in test [2] was around 8 µM; in test [3], around 20 µM; in test [4] it was around 6 µM; in test [5], around 10 µM. Moreover, the “rel max FI (20E), DM” value in test [3] (DmEcR) came to 0.07. Further, the “rel max FI (PoA), DM” value in test [3] (DmEcR) came out at 0.09. In addition, the Emax is 137% in test [4] (read-out: rel max FI (20E), TM); 71% in test [4] (read-out: rel max FI (PoA), TM); 38% in test [5] (read-out: rel max FI (20E), BA); 30% in test [5] (read-out: rel max FI (PoA), BA).
For the molecule `COC1C[C@H]2C(=O)C=C3[C@H](CC[C@]4(C)[C@@H]([C@@](C)(O)C(CCC(C)(C)O)OC)CC[C@@]34OC)[C@@]2(C)CC1OC` (some centres unmarked) [20E-2,3,14,22-tetramethyl ether], in test [2], the “rel max FI (20E), NC” value was found to be 0.01; the “rel max FI (PoA), NC” value is listed as 0.01; the EC50 is above 33 µM. Moreover, in test [3] (DmEcR), the “rel max FI (20E), DM” value is on record as 0.01 and the “rel max FI (PoA), DM” value amounted to 0.02. Also, in test [3] (read-out: EC50 (μM), DM, DmEcR, NIH3T3 cells, luciferase, 48 h, ligand 0.01-33 μM), the EC50 was above 33 µM. In addition, the “rel max FI (20E), TM” value in test [4] (TmEcR, max fold induction at any concentration relative to 20E) is recorded as 0.05. Moreover, the “rel max FI (PoA), TM” value in test [4] (TmEcR, max fold induction at any concentration relative to PoA) is on record as 0.02. The EC50 in test [4] (read-out: EC50 (μM), TM, TmEcR, NIH3T3 cells, luciferase, 48 h, ligand 0.01-33 μM) was above 33 µM. Further, in test [5] (BaEcR, max fold induction at any concentration relative to 20E), the “rel max FI (20E), BA” value worked out at 0.02. Further, the “rel max FI (PoA), BA” value in test [5] (BaEcR, max fold induction at any concentration relative to PoA) is listed as 0.01. In addition, the EC50 in test [5] (read-out: EC50 (μM), BA, BaEcR, NIH3T3 cells, luciferase, 48 h, ligand 0.01-33 μM) was above 33 µM.
Consider `CC(C)=CC[C@@H](O)[C@](C)(O)[C@H]1CC[C@@]2(O)C3=CC(=O)[C@@H]4C[C@@H](O)[C@@H](O)C[C@]4(C)[C@H]3CC[C@]12C` [stachysterone C], for which, in test [1] (FIGS. 13 and 14), the “activity across the tested set of EcRs” value was “active”.
Regarding `CO[C@H]1C[C@@]2(C)[C@@H](C[C@H]1O)C(=O)C=C1[C@@H]2CC[C@]2(C)[C@@H]([C@@](C)(O)[C@H](O)CCC(C)(C)O)CC[C@@]12O` [20E-2-methyl ether], in test [2], the “rel max FI (20E), NC” value is listed as 0.82. In test [2], the “rel max FI (PoA), NC” value turned out to be 0.84. For the same molecule, the EC50 in test [2] is around 8 µM; in test [3], above 33 µM; in test [4], above 33 µM; in test [5], above 33 µM. Further, in test [3] (DmEcR), the “rel max FI (20E), DM” value is 0.00. In test [3] (DmEcR), the “rel max FI (PoA), DM” value worked out at 0.00. The Emax was 7% in test [4] (read-out: rel max FI (20E), TM); 4% in test [4] (read-out: rel max FI (PoA), TM); 3% in test [5] (read-out: rel max FI (20E), BA); 3% in test [5] (read-out: rel max FI (PoA), BA).
